In ChEMBL document CHEMBL5465560, “Selectivity Literature for EUbOPEN Chemogenomic Library” (2024):

Legend:
[1] = target: eIF-2-alpha kinase GCN2 (Homo sapiens) (UniProt Q9P2K8); experiment: Selectivity interaction (ActivX KiNativ screen (kinase selectivity in THP-1 cell lysates)) EUB0000639a EIF2AK4; format: subcellular; settings: lysate, at 0.04 µM
[2] = target: Serine/threonine-protein kinase SIK3 (Homo sapiens) (UniProt Q9Y2K2); experiment: Selectivity interaction (KinomeScan (DiscoverX)) EUB0000695a SIK3; settings: at 100 nM
Serine/threonine-protein kinase SIK3 (Homo sapiens), sequence (Q9Y2K2 whole entry, looked up): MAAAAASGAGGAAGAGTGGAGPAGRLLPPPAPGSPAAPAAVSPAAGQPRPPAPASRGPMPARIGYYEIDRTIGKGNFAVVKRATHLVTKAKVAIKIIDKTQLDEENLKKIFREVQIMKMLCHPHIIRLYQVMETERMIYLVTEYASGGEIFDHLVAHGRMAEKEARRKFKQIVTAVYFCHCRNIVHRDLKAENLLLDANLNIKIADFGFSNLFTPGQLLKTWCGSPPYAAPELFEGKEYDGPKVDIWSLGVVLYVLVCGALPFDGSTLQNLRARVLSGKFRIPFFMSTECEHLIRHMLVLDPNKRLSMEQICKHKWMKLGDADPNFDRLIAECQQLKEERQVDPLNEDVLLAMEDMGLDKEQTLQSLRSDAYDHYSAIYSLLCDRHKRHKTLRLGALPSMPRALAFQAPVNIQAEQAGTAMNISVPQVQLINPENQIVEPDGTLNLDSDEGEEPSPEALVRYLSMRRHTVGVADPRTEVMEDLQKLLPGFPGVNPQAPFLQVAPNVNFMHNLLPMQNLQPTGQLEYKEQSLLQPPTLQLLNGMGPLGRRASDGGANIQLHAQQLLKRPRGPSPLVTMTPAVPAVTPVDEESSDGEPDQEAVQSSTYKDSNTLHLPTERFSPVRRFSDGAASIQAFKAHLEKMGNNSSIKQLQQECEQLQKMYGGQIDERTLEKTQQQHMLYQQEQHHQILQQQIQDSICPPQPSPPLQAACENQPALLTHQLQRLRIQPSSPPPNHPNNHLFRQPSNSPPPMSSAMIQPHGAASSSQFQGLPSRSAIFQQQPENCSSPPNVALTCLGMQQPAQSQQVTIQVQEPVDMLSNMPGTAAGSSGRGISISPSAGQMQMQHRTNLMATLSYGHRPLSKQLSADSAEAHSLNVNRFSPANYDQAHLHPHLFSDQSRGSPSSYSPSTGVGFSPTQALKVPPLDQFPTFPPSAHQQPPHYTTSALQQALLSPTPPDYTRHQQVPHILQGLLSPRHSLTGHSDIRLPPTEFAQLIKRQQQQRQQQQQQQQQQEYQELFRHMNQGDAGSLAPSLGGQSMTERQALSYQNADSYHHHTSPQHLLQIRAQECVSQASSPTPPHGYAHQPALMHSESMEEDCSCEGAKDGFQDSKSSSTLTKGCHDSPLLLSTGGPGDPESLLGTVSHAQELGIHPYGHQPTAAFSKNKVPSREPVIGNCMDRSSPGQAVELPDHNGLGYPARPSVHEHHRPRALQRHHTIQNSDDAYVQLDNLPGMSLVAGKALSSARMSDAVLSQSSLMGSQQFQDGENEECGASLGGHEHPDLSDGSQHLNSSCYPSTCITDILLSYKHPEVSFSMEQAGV

[3] = target: T1, Mitogen-activated protein kinase kinase kinase 5 (Homo sapiens) (UniProt Q99683); experiment: Selectivity interaction (KinomeScan (DiscoverX)) EUB0001049a MAP3K5; settings: at 1 µM
T1 sequence (whole entry): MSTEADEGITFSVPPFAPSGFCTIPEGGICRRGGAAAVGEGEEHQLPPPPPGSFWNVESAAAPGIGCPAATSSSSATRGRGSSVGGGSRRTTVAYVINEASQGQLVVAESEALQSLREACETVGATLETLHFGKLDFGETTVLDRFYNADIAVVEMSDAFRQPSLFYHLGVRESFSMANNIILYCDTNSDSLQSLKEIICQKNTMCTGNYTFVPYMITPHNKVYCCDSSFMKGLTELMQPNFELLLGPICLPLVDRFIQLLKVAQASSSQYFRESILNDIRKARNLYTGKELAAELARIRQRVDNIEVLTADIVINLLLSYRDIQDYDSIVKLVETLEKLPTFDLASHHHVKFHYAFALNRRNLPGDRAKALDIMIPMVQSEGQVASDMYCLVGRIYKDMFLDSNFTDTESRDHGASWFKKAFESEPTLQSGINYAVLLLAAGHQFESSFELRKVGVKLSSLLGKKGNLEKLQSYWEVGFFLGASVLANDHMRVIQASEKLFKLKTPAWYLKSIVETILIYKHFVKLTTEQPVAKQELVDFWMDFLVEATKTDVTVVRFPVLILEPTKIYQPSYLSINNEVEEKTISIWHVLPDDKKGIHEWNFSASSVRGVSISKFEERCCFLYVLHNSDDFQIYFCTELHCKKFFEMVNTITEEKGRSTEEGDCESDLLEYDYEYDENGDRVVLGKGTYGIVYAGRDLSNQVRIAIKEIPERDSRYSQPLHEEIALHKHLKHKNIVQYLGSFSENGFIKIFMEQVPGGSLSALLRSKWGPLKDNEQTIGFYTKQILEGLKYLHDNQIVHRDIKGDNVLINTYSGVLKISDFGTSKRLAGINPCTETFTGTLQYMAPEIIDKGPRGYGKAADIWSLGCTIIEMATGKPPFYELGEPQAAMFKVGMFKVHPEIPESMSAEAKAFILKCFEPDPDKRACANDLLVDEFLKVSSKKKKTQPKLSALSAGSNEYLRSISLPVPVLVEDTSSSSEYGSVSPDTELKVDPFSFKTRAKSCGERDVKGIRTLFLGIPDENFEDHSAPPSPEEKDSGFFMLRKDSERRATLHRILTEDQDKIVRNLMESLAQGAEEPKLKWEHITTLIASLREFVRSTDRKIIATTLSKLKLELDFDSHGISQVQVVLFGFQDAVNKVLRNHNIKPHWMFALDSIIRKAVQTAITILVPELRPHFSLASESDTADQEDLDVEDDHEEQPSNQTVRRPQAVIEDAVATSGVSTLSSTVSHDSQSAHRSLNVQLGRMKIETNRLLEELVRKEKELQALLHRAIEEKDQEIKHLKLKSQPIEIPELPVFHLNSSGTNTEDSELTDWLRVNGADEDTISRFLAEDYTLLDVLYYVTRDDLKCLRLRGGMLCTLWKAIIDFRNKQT

[4] = target: T2, Bone morphogenetic protein receptor type-2 (Homo sapiens) (UniProt Q13873); experiment: Selectivity interaction (KinomeScan (DiscoverX)) EUB0001079a BMPR2; settings: at 1 µM
T2 sequence (whole entry): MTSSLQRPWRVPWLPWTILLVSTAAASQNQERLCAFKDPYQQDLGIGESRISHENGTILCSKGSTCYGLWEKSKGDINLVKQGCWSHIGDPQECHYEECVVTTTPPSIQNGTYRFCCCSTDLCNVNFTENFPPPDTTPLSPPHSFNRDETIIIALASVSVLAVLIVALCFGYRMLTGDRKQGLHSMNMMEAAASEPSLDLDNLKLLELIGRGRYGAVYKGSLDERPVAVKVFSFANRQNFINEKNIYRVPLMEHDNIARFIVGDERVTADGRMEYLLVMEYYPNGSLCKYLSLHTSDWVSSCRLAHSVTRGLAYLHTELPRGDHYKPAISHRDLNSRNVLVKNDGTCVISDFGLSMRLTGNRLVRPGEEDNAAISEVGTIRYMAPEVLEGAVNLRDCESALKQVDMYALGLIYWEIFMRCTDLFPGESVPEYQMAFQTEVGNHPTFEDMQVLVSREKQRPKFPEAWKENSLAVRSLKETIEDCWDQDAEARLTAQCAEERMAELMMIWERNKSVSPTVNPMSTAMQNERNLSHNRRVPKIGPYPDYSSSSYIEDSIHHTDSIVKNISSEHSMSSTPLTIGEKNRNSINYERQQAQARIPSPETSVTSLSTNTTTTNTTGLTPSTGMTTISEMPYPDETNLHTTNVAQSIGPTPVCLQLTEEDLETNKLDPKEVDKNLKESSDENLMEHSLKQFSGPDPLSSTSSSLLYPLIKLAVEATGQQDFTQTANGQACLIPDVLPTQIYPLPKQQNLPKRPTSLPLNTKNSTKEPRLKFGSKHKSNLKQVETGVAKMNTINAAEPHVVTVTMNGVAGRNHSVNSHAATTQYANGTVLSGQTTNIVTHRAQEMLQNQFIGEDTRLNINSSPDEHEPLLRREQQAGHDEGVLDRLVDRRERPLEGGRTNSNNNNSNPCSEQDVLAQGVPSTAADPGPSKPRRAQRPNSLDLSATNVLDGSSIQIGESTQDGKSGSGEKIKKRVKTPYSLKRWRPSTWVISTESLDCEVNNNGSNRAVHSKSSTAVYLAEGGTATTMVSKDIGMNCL

[5] = target: Cyclin-dependent kinase 16 (Homo sapiens) (UniProt Q00536); experiment: Selectivity interaction (Kinase panel (KiNativ target engagement assay in Jurkat cells)) EUB0001635a CDK16; format: cell-based; settings: Selectivity number of off-targets 0.0, Selectivity number of targets 233.0, Source Knowledge https://www.sciencedirect.com/science/article/pii/S2451945619300674?via%3Dihub, at 1 µM
Cyclin-dependent kinase 16 (Homo sapiens), sequence (Q00536 whole entry): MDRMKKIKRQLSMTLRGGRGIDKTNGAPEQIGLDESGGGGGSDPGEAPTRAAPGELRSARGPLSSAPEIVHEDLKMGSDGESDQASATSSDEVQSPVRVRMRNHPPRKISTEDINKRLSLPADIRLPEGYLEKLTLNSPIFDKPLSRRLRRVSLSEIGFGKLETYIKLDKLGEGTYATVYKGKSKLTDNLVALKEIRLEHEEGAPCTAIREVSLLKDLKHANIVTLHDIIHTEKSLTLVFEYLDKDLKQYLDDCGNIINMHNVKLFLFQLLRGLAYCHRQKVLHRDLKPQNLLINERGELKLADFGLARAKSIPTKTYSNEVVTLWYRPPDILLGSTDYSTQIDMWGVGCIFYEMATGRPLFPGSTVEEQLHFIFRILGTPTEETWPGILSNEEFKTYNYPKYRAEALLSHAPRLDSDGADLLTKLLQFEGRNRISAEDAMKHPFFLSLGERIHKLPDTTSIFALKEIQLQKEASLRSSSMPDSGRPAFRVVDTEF

[6] = target: Focal adhesion kinase 1 (Homo sapiens, UniProt Q05397); experiment: Selectivity interaction (KinomeScan (DiscoverX)) EUB0001619a PTK2; settings: at 1 µM
Focal adhesion kinase 1, sequence (Q05397 2-1052 limits assumed): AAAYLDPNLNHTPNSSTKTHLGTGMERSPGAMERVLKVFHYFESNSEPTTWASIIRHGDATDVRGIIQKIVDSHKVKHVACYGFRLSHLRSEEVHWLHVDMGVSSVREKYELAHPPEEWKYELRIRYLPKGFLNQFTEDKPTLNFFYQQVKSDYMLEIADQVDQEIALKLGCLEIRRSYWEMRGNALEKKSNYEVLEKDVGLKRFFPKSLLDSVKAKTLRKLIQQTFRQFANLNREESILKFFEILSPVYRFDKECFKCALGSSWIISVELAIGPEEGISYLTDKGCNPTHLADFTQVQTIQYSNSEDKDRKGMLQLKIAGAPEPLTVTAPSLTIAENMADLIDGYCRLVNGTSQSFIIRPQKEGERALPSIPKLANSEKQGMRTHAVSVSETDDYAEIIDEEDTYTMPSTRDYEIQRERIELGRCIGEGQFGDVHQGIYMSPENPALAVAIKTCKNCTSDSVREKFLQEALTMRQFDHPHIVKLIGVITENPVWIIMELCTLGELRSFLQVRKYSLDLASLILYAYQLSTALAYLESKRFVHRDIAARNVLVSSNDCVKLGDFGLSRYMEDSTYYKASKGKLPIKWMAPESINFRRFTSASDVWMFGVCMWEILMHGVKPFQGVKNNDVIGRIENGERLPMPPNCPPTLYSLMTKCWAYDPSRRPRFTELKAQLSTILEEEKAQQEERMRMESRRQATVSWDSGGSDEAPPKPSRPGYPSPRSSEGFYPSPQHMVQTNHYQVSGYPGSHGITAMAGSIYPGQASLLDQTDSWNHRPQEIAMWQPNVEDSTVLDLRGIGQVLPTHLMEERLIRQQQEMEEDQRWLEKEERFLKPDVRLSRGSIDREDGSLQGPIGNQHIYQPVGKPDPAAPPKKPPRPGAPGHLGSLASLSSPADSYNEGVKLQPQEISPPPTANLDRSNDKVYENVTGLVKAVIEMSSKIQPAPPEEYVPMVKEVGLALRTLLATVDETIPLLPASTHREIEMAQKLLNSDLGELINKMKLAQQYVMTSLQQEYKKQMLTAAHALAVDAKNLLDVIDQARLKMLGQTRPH

eIF-2-alpha kinase GCN2 (Homo sapiens), sequence (Q9P2K8 whole entry): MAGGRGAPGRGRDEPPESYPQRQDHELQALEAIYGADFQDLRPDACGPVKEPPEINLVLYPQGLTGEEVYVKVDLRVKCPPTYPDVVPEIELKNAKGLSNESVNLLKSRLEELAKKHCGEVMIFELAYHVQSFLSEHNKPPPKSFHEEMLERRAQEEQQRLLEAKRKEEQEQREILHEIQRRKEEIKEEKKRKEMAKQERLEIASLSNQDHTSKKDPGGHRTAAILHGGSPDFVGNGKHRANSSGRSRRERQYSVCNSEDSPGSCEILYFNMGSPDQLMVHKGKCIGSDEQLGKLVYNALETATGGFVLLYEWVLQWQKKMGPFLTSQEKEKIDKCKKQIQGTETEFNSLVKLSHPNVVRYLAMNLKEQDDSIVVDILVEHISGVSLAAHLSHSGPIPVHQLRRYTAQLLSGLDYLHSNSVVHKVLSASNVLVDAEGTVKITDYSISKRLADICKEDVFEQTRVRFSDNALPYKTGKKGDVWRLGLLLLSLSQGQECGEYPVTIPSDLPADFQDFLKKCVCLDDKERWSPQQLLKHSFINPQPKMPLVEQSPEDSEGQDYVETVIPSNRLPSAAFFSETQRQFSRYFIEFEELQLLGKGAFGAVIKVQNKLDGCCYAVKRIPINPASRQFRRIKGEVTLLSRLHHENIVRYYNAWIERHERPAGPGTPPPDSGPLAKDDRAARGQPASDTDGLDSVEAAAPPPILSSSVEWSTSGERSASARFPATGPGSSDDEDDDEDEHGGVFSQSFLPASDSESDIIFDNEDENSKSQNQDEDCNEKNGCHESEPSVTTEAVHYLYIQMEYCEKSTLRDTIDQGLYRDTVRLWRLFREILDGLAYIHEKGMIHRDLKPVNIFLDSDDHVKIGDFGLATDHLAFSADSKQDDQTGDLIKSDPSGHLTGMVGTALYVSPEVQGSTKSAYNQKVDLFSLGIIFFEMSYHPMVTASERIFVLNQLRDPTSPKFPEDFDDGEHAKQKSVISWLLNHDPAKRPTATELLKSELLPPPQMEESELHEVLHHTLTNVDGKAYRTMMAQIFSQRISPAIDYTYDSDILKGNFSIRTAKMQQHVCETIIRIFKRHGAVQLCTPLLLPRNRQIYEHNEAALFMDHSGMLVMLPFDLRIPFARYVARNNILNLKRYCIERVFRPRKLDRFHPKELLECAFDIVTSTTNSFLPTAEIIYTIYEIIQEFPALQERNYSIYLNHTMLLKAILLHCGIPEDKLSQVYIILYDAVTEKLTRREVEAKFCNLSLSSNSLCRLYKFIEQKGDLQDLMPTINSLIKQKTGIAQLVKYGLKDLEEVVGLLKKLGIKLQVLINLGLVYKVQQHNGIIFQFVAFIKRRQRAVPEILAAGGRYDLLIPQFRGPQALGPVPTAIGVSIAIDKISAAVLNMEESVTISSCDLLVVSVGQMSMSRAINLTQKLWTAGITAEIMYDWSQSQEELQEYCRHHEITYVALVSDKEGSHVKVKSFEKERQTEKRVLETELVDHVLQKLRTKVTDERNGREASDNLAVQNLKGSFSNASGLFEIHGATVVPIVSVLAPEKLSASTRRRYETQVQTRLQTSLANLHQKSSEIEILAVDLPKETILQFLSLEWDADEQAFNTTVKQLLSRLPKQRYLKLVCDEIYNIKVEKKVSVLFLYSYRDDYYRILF

Structure (SMILES): CC[C@@H]1[C@H](F)C(=O)N[C@@H]1COc1nccc2cc(C(N)=O)c(OC)cc12 [ZIMLOVISERTIB]
- % of inhibition [1]: 0.9%

Structure (SMILES): Cc1cc(F)c(C(=O)Nc2cccc(-c3nncn3C(C)C)n2)cc1-n1cnc(C2CC2)c1
- % of control [2]: 100%

Structure (SMILES): COc1cc(Nc2nc(C)cc(-c3cnn4nc(OC)ccc34)n2)cc(C(F)(F)F)c1
- % of control [3]: 80%

Structure (SMILES): Nc1cnc(N2CCc3cc(S(=O)(=O)Nc4c(F)cc(Cl)cc4F)cc(N4CCCC4=O)c32)nc1 [TP-020n]
- % of control [4]: 100%

Structure (SMILES): C=CC(=O)Nc1ccc(C(=O)Nc2[nH]nc3c2CN(C(=O)N[C@H](CN(C)C)c2ccccc2)C3(C)C)cc1
- % of engagement [5]: 3.1%

Structure (SMILES): N#Cc1cccc(-c2c[nH]c3ncnc(N4CCOCC4)c23)c1
- % of control [6]: 100%
